In ChEMBL document CHEMBL3272160, “Synthesis and some pharmacological properties of [1-(L-2-hydroxy-3-mercaptopropanoic acid), 4-threonine]oxytocin (hydroxy [4-thr]oxytocin), a peptide with strikingly high oxytocic potency and of [1-(L-2-hydroxy-3-mercaptopropanoic acid)]oxytocin (hydroxy-oxytocin)” (J Med Chem, 1976) one finds Activity and Ratio data, which are given here for nine compounds.

*1 amine or outer side, *2 acyl side, *3 side chain or, on linkers, in order; H or OH if unused. Where a SMILES comes first, the peptide text is derived from it. Bridges are numbered along the chain shown (N, C = ends). [ ]: non-standard residue; d: D form. Abu(4-yl) = O=C([C@H](CC[*:3])N[*:1])[*:2]; X1 = O=C([C@@H](O)CS[*:2])[*:1]; X2 = O=C(CCC[*:2])[*:1]; Mpa = O=C(O)CCS

For series [1], the species on record is Rattus norvegicus. Description: Vasopressor activity in rat. The format is ADME, organism-based. The conditions noted are these: in vivo.
Series [2] can be described thus: Ratio of activity at oxytocin receptor in rat uterus to antidiuretic activity in rat. Also noted: species or system Urine.
For series [3], the target named is T1, Oxytocin receptor (Rattus norvegicus) (UniProt P70536).
T1 sequence (whole entry): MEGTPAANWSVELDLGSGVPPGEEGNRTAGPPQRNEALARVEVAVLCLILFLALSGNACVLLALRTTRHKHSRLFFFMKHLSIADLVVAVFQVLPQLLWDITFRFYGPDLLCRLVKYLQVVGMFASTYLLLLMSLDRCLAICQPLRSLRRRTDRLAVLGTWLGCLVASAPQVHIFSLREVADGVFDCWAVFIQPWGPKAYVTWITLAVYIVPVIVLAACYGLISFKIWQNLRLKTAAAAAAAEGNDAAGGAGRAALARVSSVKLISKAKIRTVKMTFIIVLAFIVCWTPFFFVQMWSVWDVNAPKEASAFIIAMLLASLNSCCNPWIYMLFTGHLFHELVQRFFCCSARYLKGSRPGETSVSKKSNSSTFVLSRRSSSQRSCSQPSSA
The series can be described thus: Activity at oxytocin receptor in rat uterus in presence of 0.5 mM Mg2+. The format is tissue-based.

Series [4] is filed under the species Rattus norvegicus. The series can be described thus: Antidiuretic activity in rat. The format is ADME, organism-based, Urine. The conditions noted are these: in vivo.
For series [5], the target named is T1, Oxytocin receptor (Rattus norvegicus). Description: Activity at oxytocin receptor in rat mammary strip.
Series [6] in a line: Ratio of activity at oxytocin receptor in rat uterus to vasopressor activity in rat.
Series [7] is filed under the species Rattus norvegicus. Description: Oxytocic activity in rat assessed as milk ejection. Type of series: functional.
For series [8], the target named is T1, Oxytocin receptor (Rattus norvegicus). The series can be described thus: Activity at oxytocin receptor in rat uterus relative to oxytocin. Type of series: tissue-based.
The target is the same in series [9]. The series can be described thus: Activity at oxytocin receptor in rat uterus. The format is tissue-based.
Series [10] is filed under the species Oryctolagus cuniculus. Description: Oxytocic activity in rabbit assessed as milk ejection. Type of series: functional.

As to `CC[C@H](C)[C@@H]1NC(=O)[C@H](Cc2ccc(O)cc2)NC(=O)[C@@H](O)CSSC[C@@H](C(=O)N2CCC[C@H]2C(=O)N[C@@H](CC(C)C)C(=O)NCC(N)=O)NC(=O)[C@H](CC(N)=O)NC(=O)[C@H]([C@@H](C)O)NC1=O` (YITNCPLG-NH2; linker N-5 via X1), the Activity stood at 4.92 U/mg in series [1]; 937 U/mg in series [3]; 5.3 U/mg in series [4]; 378 U/mg in [5]; 808 U/mg in [7]; 4180 U/mg in series [9]. Further, the Ratio in series [2] worked out at 788; in [6], 849; in [8], 8.
For the compound `CC[C@H](C)[C@@H]1NC(=O)[C@H](Cc2ccc(O)cc2)NC(=O)CCSSC[C@@H](C(=O)N2CCC[C@H]2C(=O)N[C@@H](CC(C)C)C(=O)NCC(N)=O)NC(=O)[C@H](CC(N)=O)NC(=O)[C@H]([C@@H](C)O)NC1=O` ([Mpa]YITNCPLG-NH2; disulfide 1-6), the Activity in series [1] was < 0.1 U/mg; in series [10], 385 U/mg; in series [3] it was 242 U/mg; in series [4] it was 0.9 U/mg; in [9], 149 U/mg. In series [2], the Ratio worked out at 165.
Take `CC[C@H](C)[C@@H]1NC(=O)[C@H](Cc2ccc(O)cc2)NC(=O)CCSSC[C@H](C(=O)N2CCC[C@H]2C(=O)N[C@@H](CC(C)C)C(=O)NCC(N)=O)NC(=O)[C@H](CC(N)=O)NC(=O)[C@H](CCC(N)=O)NC1=O`: the Activity in series [3] was determined as 760 U/mg.
Regarding `CC[C@H](C)[C@@H]1NC(=O)[C@H](Cc2ccc(O)cc2)NC(=O)[C@@H](N)CSSC[C@@H](C(=O)N2CCC[C@H]2C(=O)N[C@@H](CC(C)C)C(=O)NCC(N)=O)NC(=O)[C@H](CC(N)=O)NC(=O)[C@H]([C@@H](C)O)NC1=O` (H-CYITNCPLG-NH2; disulfide 1-6), the Activity worked out at 0.43 U/mg in [1]; 543 U/mg in [10]; 719 U/mg in series [3]; 1.8 U/mg in series [4]; 923 U/mg in [9]. In addition, the Ratio in series [2] was 513; in [6] it was 2146; in [8], > 4.
With `CC[C@H](C)[C@@H]1NC(=O)[C@H](Cc2ccc(O)cc2)NC(=O)[C@@H](O)CSSC[C@@H](C(=O)N2CCC[C@H]2C(=O)N[C@@H](CC(C)C)C(=O)NCC(N)=O)NC(=O)[C@H](CC(N)=O)NC(=O)[C@H](CCC(N)=O)NC1=O` (YIQNCPLG-NH2; linker N-5 via X1), the Activity in series [1] was found to be 14.7 U/mg; in [3] it was 868 U/mg; in series [4], 16.6 U/mg; in series [5], 363 U/mg; in series [7], 694 U/mg; in series [9], 1280 U/mg. Besides, the results for the Ratio in [2], in series [6] and in series [8] were 77, 50 and 2.45, respectively.
With `CC[C@H](C)[C@@H]1NC(=O)[C@H](Cc2ccc(O)cc2)NC(=O)CCSSC[C@@H](C(=O)N2CCC[C@H]2C(=O)N[C@@H](CC(C)C)C(=O)NCC(N)=O)NC(=O)[C@H](CC(N)=O)NC(=O)[C@H](CCC(N)=O)NC1=O` [DEMOXYTOCIN], the Activity was found to be 1.44 U/mg in series [1], 541 U/mg in [10] and 19 U/mg in [4]. Besides, the Ratio was found to be 42 in series [2] and 558 in series [6].
For `CC[C@H](C)[C@@H]1NC(=O)[C@H](Cc2ccc(O)cc2)NC(=O)[C@@H](N)CCSC[C@@H](C(=O)N2CCC[C@H]2C(=O)N[C@@H](CC(C)C)C(=O)NCC(N)=O)NC(=O)[C@H](CC(N)=O)NC(=O)[C@H](CCC(N)=O)NC1=O` (H-[Abu(4-yl)]YIQNCPLG-NH2; thioether 1-6), the Activity in series [1] came to 2.95 U/mg; in [4] it was 9.3 U/mg; in series [5], 177 U/mg; in series [9], 734 U/mg. Further, the results for the Ratio in series [2] and in series [6] were 79 and 249, respectively.
Turning to `CC[C@H](C)[C@@H]1NC(=O)[C@H](Cc2ccc(O)cc2)NC(=O)CCCSC[C@@H](C(=O)N2CCC[C@H]2C(=O)N[C@@H](CC(C)C)C(=O)NCC(N)=O)NC(=O)[C@H](CC(N)=O)NC(=O)[C@H](CCC(N)=O)NC1=O` (YIQNCPLG-NH2; linker N-5 via X2), the Activity came out at 17.5 U/mg in series [1]; 921 U/mg in series [3]; 24.1 U/mg in series [4]; 581 U/mg in series [5]; 1900 U/mg in [9]. In addition, the figures for the Ratio in series [2], in series [6] and in series [8] were 79, 108 and 4, respectively.
`CC[C@H](C)[C@@H]1NC(=O)[C@H](Cc2ccc(O)cc2)NC(=O)[C@@H](N)CSSC[C@@H](C(=O)N2CCC[C@H]2C(=O)N[C@@H](CC(C)C)C(=O)NCC(N)=O)NC(=O)[C@H](CC(N)=O)NC(=O)[C@H](CCC(N)=O)NC1=O` [OXYTOCIN]: the Activity in series [10] worked out at 474 U/mg; in series [3], 486 U/mg; in [4], 4 U/mg; in series [9], 520 U/mg. In addition, in series [8], the Ratio is > 7.
